For one assay, the system named is Plasmodium falciparum. As to the kind of experiment: (§1) MMV: Thermal shift assay for identifying inhibitors. The note with it: 3D7.
Another assay concerns Leishmania donovani. Described as §1.

Each structure is given as a SMILES string.

Turning to `COc1ccc(C=C2SC(=N)N(c3ccccc3OC)C2=O)cc1`, the shift in melting temperature (ΔTm) (in general, the shift of the melting midpoint relative to a reference) in the assay on Plasmodium falciparum was 5.4 °C.

As to `COc1ccc(-c2cc(=O)oc3c4c(ccc23)OCN(Cc2ccc(F)cc2)C4)cc1`, the ΔTm in the assay with Plasmodium falciparum turned out to be 2.2 °C.

Take `COc1cc(OC)cc(C(=O)Nc2ccc(-c3nc4ccccc4[nH]3)cc2)c1`: the shift in melting temperature (ΔTm) with Plasmodium falciparum came to 2.6 °C.

Regarding `Cc1cccc(-n2ncc3c(O)nc(-n4nc(C)cc4NC(=O)c4cc5ccccc5o4)nc32)c1`, in the assay on Plasmodium falciparum, the ΔTm amounted to 12.7 °C.

As to `FC(F)(F)c1cccc(Nc2nc3ccccc3nc2Nc2cccc(C(F)(F)F)c2)c1`, in the assay with Plasmodium falciparum, the shift in melting temperature (ΔTm) was 2.5 °C.

As to `COc1ccc(Nc2nc(NCc3ccccc3)c3ccccc3n2)cc1`, the shift in melting temperature (ΔTm) in the assay on Plasmodium falciparum is 2.4 °C.

Consider `O=C(Nc1ccc(Br)cc1)Nc1cccc(Cl)c1`, for which the ΔTm in the assay with Plasmodium falciparum is 3.6 °C.

As for `COc1cc2cc(C(=O)Nc3ccccc3)c(N)nc2cc1OC`, the thermal shift (ΔTm) in the assay with Plasmodium falciparum was 2.7 °C.

In the case of `CC1CCN(Cc2ccc(NC(=O)c3cc4ccc5cccnc5c4[nH]3)cc2)CC1`, in the assay with Plasmodium falciparum, the thermal shift (ΔTm) worked out at 2.2 °C.

Take `CCOc1ccc(C2N(C)c3ccccc3N2C)cc1`: in the assay on Leishmania donovani, the ΔTm came out at 2.5 °C.

Take `CCOC(=O)c1cnc2ccc(Cl)cc2c1NCCCN(C)C`: the ΔTm in the assay on Plasmodium falciparum amounted to 3.1 °C.

As to `FC(F)(F)c1cccc(Nc2nc(-c3ccccc3)nc3ncccc23)c1`, the thermal shift (ΔTm) in the assay on Plasmodium falciparum is 3.7 °C.

For `COc1ccc(C(=O)NC(c2ccc(Cl)cc2Cl)c2cc(Cl)c3cccnc3c2O)cc1` (centres undefined), in the assay with Leishmania donovani, the ΔTm is 2.4 °C.

For `Cc1cc(C)cc(Nc2cc(C)nc3nc(C(F)(F)F)nn23)c1`, the ΔTm with Leishmania donovani turned out to be 2.2 °C.

On to `CCN(Cc1ccccc1)C1CCN(Cc2cc(Br)ccc2O)CC1`, for which the ΔTm with Plasmodium falciparum amounted to 12.4 °C.

Take `COc1cccc(C(=O)Nc2ccc(-c3nc4ccccc4[nH]3)cc2)c1`: in the assay with Plasmodium falciparum, the ΔTm stood at 2.5 °C.

As for `O=C(NC1CCN(Cc2ccccc2)CC1)c1cc(-c2ccncc2)nc2ccc(Cl)cc12`, the ΔTm in the assay with Plasmodium falciparum came to 3 °C.

On to `CCC(O)c1ccc(Br)cc1NC(=O)c1cccc(Cl)c1` (centres undefined), for which the ΔTm with Plasmodium falciparum was 2 °C.

For the compound `CCCN(CCC)CCCNC(=O)c1cc2c(-c3ccc(OC)c(OC)c3)nn(C)c2s1`, in the assay on Plasmodium falciparum, the ΔTm is 2 °C.

Take `Cc1ccc(Nc2nc(N)c3ccccc3n2)cc1Cl`: the thermal shift (ΔTm) in the assay on Leishmania donovani was found to be 4 °C.

On to `Cc1ccc(NC(=O)Nc2cccc(Cl)c2)cc1F`, for which, in the assay with Plasmodium falciparum, the ΔTm stood at 2.4 °C.

`CC1CCCCN1CCCNC(=O)c1ccc2c(c1)sc1nc(-c3ccc(F)cc3)cn12` (centres undefined): in the assay on Plasmodium falciparum, the ΔTm is 2.4 °C.

In the case of `CCOc1cccc(C(=O)Nc2ccc(-c3nc4ccccc4[nH]3)cc2)c1`, the ΔTm in the assay with Plasmodium falciparum amounted to 2.9 °C.

For `O=C(Nc1ccccc1O)c1ccc(Oc2cccc(C(=O)Nc3ccccc3O)c2)cc1`, the shift in melting temperature (ΔTm) in the assay on Plasmodium falciparum is 2.2 °C.

As to `CC(C)(C)C(=O)Nc1ccc(C(=O)Nc2cccc(-c3nc4ccccc4[nH]3)c2)cc1`, the ΔTm with Plasmodium falciparum amounted to 2.3 °C.

With `COc1cc(C(=O)Nc2ccc(-c3nc4ccccc4[nH]3)cc2)cc(OC)c1OC`, the thermal shift (ΔTm) in the assay on Leishmania donovani stood at 4.8 °C.

In the case of `COc1ccc2c(c1)OC(O)(C(F)(F)C(F)(F)F)CC2=O` (centres undefined), the thermal shift (ΔTm) in the assay with Plasmodium falciparum was 7.5 °C.

As for `O=C(NC1CCN(Cc2ccccc2)CC1)c1cc(-c2cccnc2)nc2ccc(Cl)cc12`, in the assay on Leishmania donovani, the ΔTm was 2.4 °C.

`O=c1cc(NC2CCN(CCCc3ccccc3)CC2)c2cc(Cl)ccc2o1`: in the assay with Plasmodium falciparum, the thermal shift (ΔTm) is 3.1 °C.

On to `CCN(CC)CCNc1ncnc2c1[nH]c1ccc(Cl)cc12`, for which the shift in melting temperature (ΔTm) with Plasmodium falciparum was 2.3 °C.

For the compound `CCN(CC)CCCNc1nc(-c2ccc(Cl)cc2)nc2ccccc12`, the ΔTm in the assay with Plasmodium falciparum was 4.1 °C.

With `Cc1sc2ncnc(Sc3nc4ccccc4[nH]3)c2c1C`, in the assay with Plasmodium falciparum, the ΔTm was determined as 2.1 °C.

As for `CCOc1cc2c(cc1OCC)C(c1cc(C)c(O)c(C)c1)NCC2` (centres undefined), the ΔTm in the assay with Leishmania donovani was found to be 3.3 °C.

For `COc1cccc(Nc2nc(NCCO)c3ccccc3n2)c1`, the ΔTm in the assay on Plasmodium falciparum stood at 2 °C.

These data come from ChEMBL document CHEMBL3301461, “MMV Malaria Box thermal shift screening” (2015).
